# Key:
# [1] = Inhibition of His-tagged XIAP BIR2-3 (125 to 356 residues) C202A/C213G double mutant (unknown origin) using fluorescein labeled SMAC peptide as substrate after 60 mins by HTRF assay; parameters: species or system Homo sapiens
# [2] = target: E3 ubiquitin-protein ligase XIAP (Homo sapiens, UniProt P98170); assay: Inhibition of His-tagged XIAP BIR3 (241 to 356 residues) (unknown origin) using fluorescein labeled SMAC peptide as substrate after 60 mins by HTRF assay
# E3 ubiquitin-protein ligase XIAP, sequence (P98170 whole entry, the tested form may be a part): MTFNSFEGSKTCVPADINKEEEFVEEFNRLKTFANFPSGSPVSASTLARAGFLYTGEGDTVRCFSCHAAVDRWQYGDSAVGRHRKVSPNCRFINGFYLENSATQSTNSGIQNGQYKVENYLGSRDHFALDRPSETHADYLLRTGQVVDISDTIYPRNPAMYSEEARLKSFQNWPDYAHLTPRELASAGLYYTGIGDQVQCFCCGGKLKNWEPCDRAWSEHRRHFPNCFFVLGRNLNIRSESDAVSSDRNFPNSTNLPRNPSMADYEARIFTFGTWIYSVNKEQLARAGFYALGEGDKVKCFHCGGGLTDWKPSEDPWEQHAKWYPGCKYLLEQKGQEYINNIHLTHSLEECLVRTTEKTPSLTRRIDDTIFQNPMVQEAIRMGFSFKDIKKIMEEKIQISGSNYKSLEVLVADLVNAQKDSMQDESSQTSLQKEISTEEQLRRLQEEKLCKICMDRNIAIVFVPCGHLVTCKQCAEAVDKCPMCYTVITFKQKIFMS
IC50 [1] [nM],IC50 [2] [nM],Structure (SMILES)
8.1,1.4,CN[C@@H](C)C(=O)N[C@H](C(=O)N1C[C@@H](c2ccc(CC(NC(=O)[C@@H](NC(=O)[C@H](C)NC)C(C)(C)SCC(=O)NC(CO)CO)C(=O)N[C@@H]3CCCc4ccccc43)cc2)C[C@H]1C(=O)N[C@@H]1CCCc2ccccc21)C(C)(C)C (stereo partly specified)
12.3,,CN[C@@H](C)C(=O)N[C@H](C(=O)N1C[C@@H](c2ccc(C[C@H](NC(=O)[C@@H](NC(=O)[C@H](C)NC)C(C)(C)SCC(=O)N(C)C[C@@H](O)CO)C(=O)N[C@@H]3CCCc4ccccc43)cc2)C[C@H]1C(=O)N[C@@H]1CCCc2ccccc21)C(C)(C)C
6.8,,CN[C@@H](C)C(=O)N[C@H](C(=O)N[C@@H](Cc1ccc([C@H]2C[C@@H](C(=O)N[C@@H]3CCCc4ccccc43)N(C(=O)[C@@H](NC(=O)[C@H](C)NC)C(C)(C)C)C2)cc1)C(=O)N[C@@H]1CCCc2ccccc21)C(C)(C)C
9.5,119,CN[C@@H](C)C(=O)N[C@H](C(=O)NC(Cc1ccc(NC(=O)c2ccc(C(=O)NC3C[C@@H](C(=O)N[C@@H]4CCCc5ccccc54)N(C(=O)[C@@H](NC(=O)[C@H](C)NC)C(C)(C)C)C3)cc2)cc1)C(=O)N[C@@H]1CCCc2ccccc21)C(C)(C)C (stereo partly specified)
